Results on 1 compound are retold here after paper PMC9481106, “Design, synthesis and biological evaluation of 2,4-pyrimidinediamine derivatives as ALK and HDACs dual inhibitors for the treatment of ALK addicted cancer” (Journal of Enzyme Inhibition and Medicinal Chemistry, 2022).

For one assay, the target named is HDAC1 (Homo sapiens, UniProt Q13547). Briefly: enzyme inhibition assay with fluorescent assay kit. The format is biochemical.
Assay [1] concerns the target ALK^wt (anaplastic lymphoma kinase) (Homo sapiens, UniProt Q9UM73). The assay can be described thus: enzyme inhibition assay with fluorescent assay kit. The format is biochemical.

Sequence of ALK^wt (anaplastic lymphoma kinase) (Q9UM73 19-1620): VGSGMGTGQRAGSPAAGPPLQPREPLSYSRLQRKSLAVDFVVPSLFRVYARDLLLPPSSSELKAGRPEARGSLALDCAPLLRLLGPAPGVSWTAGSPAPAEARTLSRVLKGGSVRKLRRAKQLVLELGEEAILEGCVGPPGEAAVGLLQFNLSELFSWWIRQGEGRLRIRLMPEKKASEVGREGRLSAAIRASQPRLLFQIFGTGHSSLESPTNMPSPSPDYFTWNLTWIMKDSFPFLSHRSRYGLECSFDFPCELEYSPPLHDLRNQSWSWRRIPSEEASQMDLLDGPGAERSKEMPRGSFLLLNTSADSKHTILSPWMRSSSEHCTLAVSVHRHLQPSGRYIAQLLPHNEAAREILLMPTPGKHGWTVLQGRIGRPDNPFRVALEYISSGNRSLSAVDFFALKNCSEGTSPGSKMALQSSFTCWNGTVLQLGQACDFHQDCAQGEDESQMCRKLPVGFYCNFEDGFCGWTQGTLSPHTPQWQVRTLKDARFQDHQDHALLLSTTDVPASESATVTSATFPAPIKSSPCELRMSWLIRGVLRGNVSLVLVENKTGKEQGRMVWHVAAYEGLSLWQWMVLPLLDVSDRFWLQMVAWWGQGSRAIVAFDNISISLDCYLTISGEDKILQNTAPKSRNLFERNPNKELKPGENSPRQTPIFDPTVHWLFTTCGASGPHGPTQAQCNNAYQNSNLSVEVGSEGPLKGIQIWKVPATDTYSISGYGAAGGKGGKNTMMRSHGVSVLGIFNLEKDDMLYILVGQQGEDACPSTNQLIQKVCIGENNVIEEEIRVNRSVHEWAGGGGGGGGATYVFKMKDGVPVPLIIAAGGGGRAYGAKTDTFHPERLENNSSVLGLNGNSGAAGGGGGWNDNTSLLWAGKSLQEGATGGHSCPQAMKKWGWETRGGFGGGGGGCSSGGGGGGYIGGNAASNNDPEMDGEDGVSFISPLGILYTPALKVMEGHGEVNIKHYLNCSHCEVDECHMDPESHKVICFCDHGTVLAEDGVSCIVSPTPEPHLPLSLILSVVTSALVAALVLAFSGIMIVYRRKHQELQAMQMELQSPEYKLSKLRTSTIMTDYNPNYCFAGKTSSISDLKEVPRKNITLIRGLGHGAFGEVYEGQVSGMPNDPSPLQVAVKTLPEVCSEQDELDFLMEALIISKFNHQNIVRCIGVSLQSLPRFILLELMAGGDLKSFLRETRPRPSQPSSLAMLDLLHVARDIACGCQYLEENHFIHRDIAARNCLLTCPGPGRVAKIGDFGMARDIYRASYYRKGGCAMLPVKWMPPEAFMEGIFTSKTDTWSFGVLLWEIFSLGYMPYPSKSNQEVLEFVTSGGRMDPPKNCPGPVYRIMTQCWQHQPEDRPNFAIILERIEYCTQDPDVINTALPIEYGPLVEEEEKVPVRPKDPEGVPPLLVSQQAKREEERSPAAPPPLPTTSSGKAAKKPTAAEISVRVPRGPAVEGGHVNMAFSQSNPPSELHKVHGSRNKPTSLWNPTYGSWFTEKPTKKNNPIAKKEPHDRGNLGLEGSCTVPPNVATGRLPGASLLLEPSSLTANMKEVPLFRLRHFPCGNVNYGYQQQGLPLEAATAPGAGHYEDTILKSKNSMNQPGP
Sequence of HDAC1 (Q13547 whole entry): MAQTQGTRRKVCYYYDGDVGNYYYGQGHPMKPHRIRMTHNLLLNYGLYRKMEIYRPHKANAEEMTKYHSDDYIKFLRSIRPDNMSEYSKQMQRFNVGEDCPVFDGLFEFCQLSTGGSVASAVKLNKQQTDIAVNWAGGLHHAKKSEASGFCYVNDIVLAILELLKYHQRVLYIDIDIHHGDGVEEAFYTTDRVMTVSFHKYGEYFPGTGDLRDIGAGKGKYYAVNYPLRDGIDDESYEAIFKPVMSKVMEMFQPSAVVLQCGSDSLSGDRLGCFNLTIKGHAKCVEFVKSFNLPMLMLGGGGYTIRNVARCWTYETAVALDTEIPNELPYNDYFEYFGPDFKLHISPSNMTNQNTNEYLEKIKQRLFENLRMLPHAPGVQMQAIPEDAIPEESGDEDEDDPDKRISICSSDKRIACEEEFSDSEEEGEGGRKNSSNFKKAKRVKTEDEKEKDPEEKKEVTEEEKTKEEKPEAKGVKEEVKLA

For the compound `CC(C)S(=O)(=O)c1ccccc1Nc1nc(Nc2ccc(C(=O)Nc3ccccc3N)cc2)ncc1Cl` [12a, N-(2-aminophenyl)-4-((5-chloro-4-((2-(isopropylsulfonyl)phenyl)amino)pyrimidin-2-yl)amino)benzamide], the values for the half-maximal inhibitory concentration (IC50) (on HDAC1; in assay [1]) were 1450 nM and 9.5 nM, respectively.

A word on the IC50: it is the midpoint of a concentration-inhibition curve. A higher IC50 goes with lower potency.
